Data set [1] relates to HBV viral load in AD38 cells. The data set can be described thus: Viral load production in AD38 cells, quantitative PCR of the core sequence in supernatant. The following applies: Hepatitis B virus, 144 h, 10 μM compound, 6 days at 37° C., supernatant qPCR, relative to DMSO control; read-out: AD38 Viral Load (%) (VL with cmpd/VL in DMSO control) at 10 μM. It is filed as cell-based.

Another data set deals with AD38 cells. The data set can be described thus: Viability of AD38 cells (Promega CellTiter-Glo). It is filed as cell-based. The following applies: 10 μM compound, 6 days, CellTiter-Glo luminescence normalized to DMSO control (100%). The procedure, abridged: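 AD38 cells were seeded at 50,000/well on collagen-coated plates and treated with compound added as a 10× solution in 10% DMSO for 6 days at 37° C. Viability was measured by CellTiter-Glo luminescence in tetracycline-free medium with 2% FBS and 1% DMSO, and expressed as percent of DMSO control.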

On to `CN(C)CCCOc1ncc(CN(C)C(=O)c2ccc3c(c2)NC(=O)c2ccccc2O3)s1` [compound 1687, N-((2-(3-(dimethylamino)propoxy)thiazol-5-yl)methyl)-N-methyl-11-oxo-10, 11-dihydrodibenzo [b, f] [1, 4] oxazepine-8-carboxamide], for which the activity at 10 µM in data set [1] was determined as 49.2%. Besides, in the data set on AD38 cells, the “AD38 Viability Normalized Result (cmpd/DMSO %) at 10 μM” value was 102%.
For the molecule `O=C(NCc1cnc(-c2ccc(NC(=O)C3CC3)cc2)s1)c1ccc2c(c1)NC(=O)c1ccccc1S2(=O)=O` [compound 1931], the activity at 10 µM in data set [1] stood at 8.5%. Besides, the “AD38 Viability Normalized Result (cmpd/DMSO %) at 10 μM” value in the data set on AD38 cells was found to be 97%.
In the case of `CN(C)CCCCc1ccc(-c2ncc(CNC(=O)c3ccc4c(c3)NC(=O)c3ccccc3S4(=O)=O)s2)cc1` [compound 11005, N-((2-(4-(4-(dimethylamino)butyl)phenyl)thiazol-5-yl)methyl)-11-oxo-10, 11-dihydrodibenzo [b, f] [1, 4] thiazepine-8-carboxamide 5,5-dioxide], the activity at 10 µM in data set [1] worked out at 1.9%. Moreover, the “AD38 Viability Normalized Result (cmpd/DMSO %) at 10 μM” value in the data set with AD38 cells turned out to be 102%.
The corresponding values for `CN(C)CCCOc1ncc(CNC(=O)c2ccc3c(c2)NC(=O)c2ccccc2S3(=O)=O)s1` [compound 1680, N-((2-(3-(dimethylamino)propoxy)thiazol-5-yl)methyl)-11-oxo-10, 11-dihydrodibenzo [b, f] [1, 4] thiazepine-8-carboxamide 5,5-dioxide] are 15% and 94%.
For `O=C(NCc1cnc(-c2ccc3[nH]ncc3c2)s1)c1ccc2c(c1)NC(=O)c1ccccc1O2` [compound 1737] the same measures were 7.2% and 112%.
On to `CN(C)CCCCc1cnn(-c2ncc(CNC(=O)c3ccc4c(c3)NC(=O)c3ccccc3S4(=O)=O)s2)c1` [compound 11099], for which the activity at 10 µM in data set [1] was determined as 3.9%. For the same molecule, the “AD38 Viability Normalized Result (cmpd/DMSO %) at 10 μM” value in the data set with AD38 cells is reported as 90%.
As for `COc1ccc(-c2ncc(CNC(=O)c3ccc4c(c3)NC(=O)c3ccccc3O4)s2)cc1` [compound 1619], the activity at 10 µM in data set [1] was determined as 1.3%. Further, in the data set on AD38 cells, the “AD38 Viability Normalized Result (cmpd/DMSO %) at 10 μM” value came to 95%.
Take `O=C(NCc1cnc(-c2ccc(O)cc2Cl)s1)c1ccc2c(c1)NC(=O)c1ccccc1O2` [compound 1703]: the activity at 10 µM in data set [1] amounted to 3.1%. Further, in the data set with AD38 cells, the “AD38 Viability Normalized Result (cmpd/DMSO %) at 10 μM” value stood at 93%.
With `O=C(NCc1cnc(-c2ccc(F)cc2)s1)c1ccc2c(c1)NC(=O)c1ccccc1S2` [compound 1556], the activity at 10 µM in data set [1] stood at 1.6%. In addition, in the data set with AD38 cells, the “AD38 Viability Normalized Result (cmpd/DMSO %) at 10 μM” value came out at 105%.
For `CN(C)c1ccnc(-c2ncc(CNC(=O)c3ccc4c(c3)NC(=O)c3ccccc3S4(=O)=O)s2)c1` [compound 1889, N-((2-(4-(dimethylamino)pyridin-2-yl)thiazol-5-yl)methyl)-11-oxo-10,11-dihydrodibenzo [b, f] [1, 4] thiazepine-8-carboxamide 5,5-dioxide] the same measures were 4.6% and 98%.
`CCCN1c2ccc(C(=O)NCc3cnc(C(F)(F)F)s3)cc2NC(=O)c2ccccc21` [compound 1916]: the activity at 10 µM in data set [1] turned out to be 15.5%. Moreover, the “AD38 Viability Normalized Result (cmpd/DMSO %) at 10 μM” value with AD38 cells turned out to be 103%.
On to `O=C1CCN(c2ncc(CNC(=O)c3ccc4c(c3)NC(=O)c3ccccc3S4(=O)=O)s2)CCN1` [compound 1973], for which the activity at 10 µM in data set [1] amounted to 33.7%. In addition, in the data set with AD38 cells, the “AD38 Viability Normalized Result (cmpd/DMSO %) at 10 μM” value is 100%.
For the molecule `O=C(NCc1cnc(Cc2ccc(O)cc2)s1)c1ccc2c(c1)NC(=O)c1ccccc1S2(=O)=O` [compound 1823, N-((2-(4-hydroxybenzyl)thiazol-5-yl)methyl)-11-oxo-10, 11-dihydrodibenzo [b, f] [1, 4] thiazepine-8-carboxamide 5,5-dioxide], the activity at 10 µM in data set [1] was determined as 5.2%. Moreover, the “AD38 Viability Normalized Result (cmpd/DMSO %) at 10 μM” value in the data set with AD38 cells worked out at 96%.
As for `N#Cc1ccc(-c2ncc(CNC(=O)c3ccc4c(c3)NC(=O)c3ccccc3S4(=O)=O)s2)c(Cl)c1` [compound 1816], the activity at 10 µM in data set [1] was found to be 0.2%. Besides, in the data set on AD38 cells, the “AD38 Viability Normalized Result (cmpd/DMSO %) at 10 μM” value is reported as 82%.
For `Cl.NCCNC(=O)c1ccc(-c2ncc(CNC(=O)c3ccc4c(c3)NC(=O)c3ccccc3S4(=O)=O)s2)cc1` [compound 11017, N-((2-(4-((2-aminoethyl)carbamoyl)phenyl)thiazol-5-yl)methyl)-11-oxo-10, 11-dihydrodibenzo [b, f] [1, 4] thiazepine-8-carboxamide 5,5-dioxide hydrochloride] the same measures were 21% and 86%.
The corresponding values for `O=C(NCc1cnc(-c2ccc(SCCCO)cc2)s1)c1ccc2c(c1)NC(=O)c1ccccc1S2(=O)=O` [11063-A, N-((2-(4-((3-hydroxypropyl)thio)phenyl)thiazol-5-yl)methyl)-11-oxo-10, 11-dihydrodibenzo [b, f] [1, 4] thiazepine-8-carboxamide 5,5-dioxide] are 0.4% and 104%.
With `CN(C)CCCOc1ncc(CNC(=O)c2ccc3c(c2)NC(=O)c2ccccc2O3)s1` [compound 1691, N-((2-(3-(dimethylamino)propoxy)thiazol-5-yl)methyl)-11-oxo-10, 11-dihydrodibenzo [b, f] [1, 4] oxazepine-8-carboxamide], the activity at 10 µM in data set [1] came to 77.1%. In addition, the “AD38 Viability Normalized Result (cmpd/DMSO %) at 10 μM” value in the data set with AD38 cells was 89%.
As to `Cl.O=C(NCc1cnc(-c2ccc(N3CCNCC3)nc2)s1)c1ccc2c(c1)NC(=O)c1ccccc1S2(=O)=O` [compound 11019, 11-oxo-N-((2-(6-(piperazin-1-yl)pyridin-3-yl)thiazol-5-yl)methyl)-10, 11-dihydrodibenzo [b, f] [1, 4] thiazepine-8-carboxamide 5,5-dioxide hydrochloride], the activity at 10 µM in data set [1] is 14.3%. Further, in the data set with AD38 cells, the “AD38 Viability Normalized Result (cmpd/DMSO %) at 10 μM” value is 93%.
For `N#Cc1cccc(-c2ncc(CNC(=O)c3ccc4c(c3)NC(=O)c3ccccc3S4(=O)=O)s2)c1` [1677-A, N-((2-(3-cyanophenyl)thiazol-5-yl)methyl)-11-oxo-10, 11-dihydrodibenzo [b, f] [1, 4] thiazepine-8-carboxamide 5,5-dioxide] the same measures were 2.3% and 103%.
Turning to `Cl.O=C(NCc1cnc(-c2ccc(OC[C@H]3CCCN3)cc2)s1)c1ccc2c(c1)NC(=O)c1ccccc1S2(=O)=O` [compound 11104, (R)-11-oxo-N-((2-(4-(pyrrolidin-2-ylmethoxy)phenyl)thiazol-5-yl)methyl)-10, 11-dihydrodibenzo [b, f] [1, 4] thiazepine-8-carboxamide 5,5-dioxide hydrochloride], in data set [1], the activity at 10 µM was determined as 9.4%. Moreover, the “AD38 Viability Normalized Result (cmpd/DMSO %) at 10 μM” value in the data set with AD38 cells is 97%.
Consider `O=C(NCc1cnc(-c2ccc3[nH]cnc3c2)s1)c1ccc2c(c1)NC(=O)c1ccccc1O2` [compound 1695], for which the activity at 10 µM in data set [1] came to 22.9%. The “AD38 Viability Normalized Result (cmpd/DMSO %) at 10 μM” value with AD38 cells came out at 102%.
`COc1c(C)cc(-c2ncc(CNC(=O)c3ccc4c(c3)NC(=O)c3ccccc3S4(=O)=O)s2)cc1C` [1806-A, N-((2-(4-methoxy-3,5-dimethylphenyl)thiazol-5-yl)methyl)-11-oxo-10, 11-dihydrodibenzo [b, f] [1, 4] thiazepine-8-carboxamide 5,5-dioxide]: the activity at 10 µM in data set [1] worked out at 0.3%. Also, the “AD38 Viability Normalized Result (cmpd/DMSO %) at 10 μM” value in the data set on AD38 cells was 66%.
The corresponding values for `O=C(NCc1cnc(-c2ccc(O)c(Cl)c2)s1)c1ccc2c(c1)NC(=O)c1ccccc1S2(=O)=O` [compound 1667] are 0.5% and 93%.
The corresponding values for `O=C(NCc1cnc(-c2nccs2)s1)c1ccc2c(c1)NC(=O)c1ccccc1S2(=O)=O` [compound 1882] are 1% and 103%.
On to `CC(C)CN1c2ccc(C(=O)NCc3cnc(C(F)(F)F)s3)cc2NC(=O)c2ccccc21` [compound 11043], for which, in data set [1], the activity at 10 µM came to 12%. Moreover, in the data set with AD38 cells, the “AD38 Viability Normalized Result (cmpd/DMSO %) at 10 μM” value is 100%.
Take `NC(=O)c1ccc(-c2ncc(CNC(=O)c3ccc4c(c3)NC(=O)c3ccccc3S4(=O)=O)s2)c(F)c1` [compound 1970, N-((2-(4-carbamoyl-2-fluorophenyl)thiazol-5-yl)methyl)-11-oxo-10, 11-dihydrodibenzo [b, f] [1, 4] thiazepine-8-carboxamide 5,5-dioxide]: in data set [1], the activity at 10 µM was 1.5%. In the data set on AD38 cells, the “AD38 Viability Normalized Result (cmpd/DMSO %) at 10 μM” value was 121%.
Take `COc1cccc(Cc2ncc(CNC(=O)c3ccc4c(c3)NC(=O)c3ccccc3S4(=O)=O)s2)c1` [compound 1822, N-((2-(3-methoxybenzyl)thiazol-5-yl)methyl)-11-oxo-10, 11-dihydrodibenzo [b, f] [1, 4] thiazepine-8-carboxamide 5,5-dioxide]: the activity at 10 µM in data set [1] was found to be 1.5%. Moreover, in the data set on AD38 cells, the “AD38 Viability Normalized Result (cmpd/DMSO %) at 10 μM” value was 89%.
For `O=C(NCc1cnc(-c2ccc([N+](=O)[O-])cc2)s1)c1ccc2c(c1)NC(=O)c1ccccc1S2(=O)=O` [1645-A] the same measures were 0.3% and 98%.
The corresponding values for `O=C(NCc1cnc(-c2ccc(O)cc2)s1)c1ccc2c(c1)NC(=O)c1cc(Cl)ccc1S2` [compound 1760] are 6.4% and 94%.
For `O=C(NCc1cnc(-c2ccc(O)cn2)s1)c1ccc2c(c1)NC(=O)c1ccccc1S2(=O)=O` [compound 1879, N-((2-(5-hydroxypyridin-2-yl)thiazol-5-yl)methyl)-11-oxo-10, 11-dihydrodibenzo [b, f] [1, 4] thiazepine-8-carboxamide 5,5-dioxide], the activity at 10 µM in data set [1] is 7.2%. Also, the “AD38 Viability Normalized Result (cmpd/DMSO %) at 10 μM” value in the data set with AD38 cells was 104%.
